These results are taken from US12311011B2, “Des-acyl ghrelin and analogs as cancer therapies” (Cornell University, priority 2018, dated 2025).

Where no end group is shown, it is not given here. The star is where a group is joined. Octanoyl = CCCCCCCC(=O)*

One series relates to MDA-MB-231 cells. As to the kind of experiment: 3D/2D cell growth assay (cell number, Hoechst). The series is classed as cell-based, human. As to conditions: for cell growth in the presence of serum: 0.05-5 μM MK2206, 0.1-10 μM BKM120; for forskolin-stimulated cell growth: 10 μM forskolin, 3D.
The next series relates to MDA-MB-468 cells. As to the kind of experiment: 3D/2D cell growth assay (cell number, Hoechst). The class given is cell-based, human. As to conditions: for cell growth in the presence of serum: 0.05-5 μM MK2206, 0.1-10 μM BKM120; for growth of MDA-MB-468 cells: 60 nM KT5720, 1.4 μM SQ22536, 15 μM cAMPs-RP; for forskolin-stimulated cell growth: 10 μM forskolin. How it is done:
(§1) Human BC Cells. Human breast cancer cell lines, MCF7, T47D, ZR75, MDA-MB-231, MDA-MB-468, SKBR3, Hs578T and HEK293T, DU4475 and MDA-MB-157 were purchased from ATCC, USA. Human 4-OH tamoxifen resistant breast cancer cells (LCC2), RKO, RKO-T29, RKO-A19, HCT116, HCT116-HWT, HCT116-HMUT were cultured using methods were performed as described previously (Yun et al., Science 325(5947):1555-9 (2009)). MCF7, MDA-MB-231, MDA-MB-468, MDA-MB-157, Hs578T, HEK293T were grown in DMEM (Invitrogen), supplemented with 10% fetal calf serum (FCS) (Invitrogen), 100U/ml penicillin/streptomycin and 1% sodium pyruvate. ZR75, T47D, SKBR3 and DU4475 were grown in RPMI, supplemented with 10% FCS, 100 U/ml penicillin/streptomycin and 2 mM L-Glutamine (ThermoFisher Scientific). LCC2 were grown in phenol red-free DMEM, supplemented with 10% charcoal stripped serum (CCS; ThermoFisher Scientific), 100 U/ml penicillin/streptomycin and 1% sodium pyruvate. All cell lines were grown at 37° C. with 5% CO2 in a humidified environment. Mycoplasma detection of all cell lines were tested and negative results were observed.
(§2) Cell Growth and Proliferation Assays. 3D culture of a panel of breast cancer and colon cancer cells were seeded at a density of 3,000 cells per well in media containing 30% growth-factor-reduced matrigel or 5 mg/ml Collagen in optical-bottom 96-well plates. Patient-derived breast tumors were first dissociated into single cell suspensions and seeded at a density of 32,000 cells per well in media containing 30% matrigel. […] At the end of the experimental time point, cells were fixed in 100% methanol. The total number of cells, or the number of dead or proliferating cells was assessed using Hoechst, EarlyTox Dead Assay Kit (Molecular Devices), or Click-IT EdU Kit (ThermoFisher Scientific), respectively, and analyzed according to the manufacturer's protocols. Cells were then imaged with >95% well coverage (magnification of 10× with 3×3 tiled images) per field using confocal microscopy. The number of nuclei/Ethidium Homodimer-III+/EdU+ cells were counted using Imaris software (Bitplane).

A further series concerns MCF7 cells. As to the kind of experiment: 3D/2D cell growth assay (cell number, Hoechst). To be noted: for serum-stimulated growth (cell number): 60 nM KT5720, 1.4 μM SQ22536, 15 μM cAMPs-RP. The series is classed as cell-based, human. How it is done: as §1, §2
In series [1] the test system is ERK activity in EKAR-transfected MCF7 cells. Nature of the series: ERK activity assay (EKAR FRET reporter). To be noted: 10% serum; 3D; time-lapse confocal. The class given is cell-based, human. As to the method:
ERK Activity Assay: The EKAR FRET-based system was used to monitor ERK activity. Briefly, breast cancer cells were co-transfected with pPBJ-puro-FRET3-EKAR-nls and the pCMV-hyPBase transposase vector, and stably transfected cells selected using FACS for EYFP and ECFP-positive cells. Cells were then cultured in 3D and serum-starved overnight. Prior live cell time-lapse confocal imaging, medium was replaced with 100 pM unacylated ghrelin and 10% serum. Images were acquired following FRET and analyzed using Imaris software. Data normalized to ECFP signal.

Series [2] relates to MCF7, MDA-MB-468 and MDA-MB-231 cells. Nature of the series: Cy3-tagged UAG binding assay in 3D cultures. Set-up: species or system human. As to conditions: 1 μM Cy3-tagged UAG with 10% serum; live confocal imaging. As to the method: Binding Assays. Cy3-tagged UAG (Pepmic Co, LtD) binding assays were performed in 3D cultures of breast cancer cells. MCF7, […] and MDA-MB231 cells were seeded at a density of 3,000 cells per well in Matrigel in optical-bottom 96-well plates. Cells were serum-starved overnight. Hoechst nuclear stain was added prior to the live cell imaging. 1 μM Cy3-tagged UAG with 10% serum was then added and time-lapse confocal imaging was performed to examine the localization of peptide binding.

Series [3] concerns panel of breast cancer cell lines. Nature of the series: 3D cell growth assay in a panel of breast cancer cell lines. The series is classed as cell-based, human. As to conditions: 100 pM. As to the method: as §1, with “All cell lines were grown at 37° C. with 5% CO2 in a humidified environment. Mycoplasma detection of all cell lines were tested and negative results were observed.” left out
Cell Growth and Proliferation Assays. […] The total number of cells, or the number of dead or proliferating cells was assessed using Hoechst, EarlyTox Dead Assay Kit (Molecular Devices), or Click-IT EdU Kit (ThermoFisher Scientific), respectively, and analyzed according to the manufacturer's protocols. […] The number of nuclei/Ethidium Homodimer-III+/EdU+ cells were counted using Imaris software (Bitplane).

The conditions of series [4]: Allas et al. 2016; cited from earlier work.
The subject of the next series is J110 allografts. Nature of the series: Syngeneic allograft in FVB/N mice. As to conditions: AZP531 200 μg/kg s.c.; 7 days; FVB mice. The series is classed as in vivo, mouse. As to the method: (§3) Animal Experimental Model. All animal experiments were performed in Monash Animal Research Platform at Hudson Institute for Medical Research and Research Animal Resource Center at Weill Cornell Medicine. Experimental procedures were in accordance with guidelines for Animal Care and Use, approved by Monash University Animal Ethics Committee (MMCA2014/20) and Weill Cornell Medicine IACUC Protocol (REQ00016929). Athymic Balb/c nude, FVB/N (Animal Resources Centre, Australia) and NSG (NOD Scid gamma; NOD.CgPrkdcscidIl2rgtmlwjl/SzJ) mice (The Jackson laboratory and Monash Breeding Colony platform) were used for this study. All mouse procedures were performed with 6-8 weeks old female mice and treatments administered via subcutaneous injection. See additional details included herein for specific in vivo experimental procedures.
A syngeneic breast cancer mouse model was created in female FVB/N mice. 1.25×10^5 J110 cells were injected into the mammary fat pad of 6-week old FVB (Immunocompetent) mice. […]
Measurement of Apoptotic Cells from Xenograft/Allograft Studies. MCF7, ZR75 and J110 tumor sections post treatment with 100 μg/kg or 200 μg/kg of unacylated ghrelin were assessed using Hoechst nuclear stain and confocal microscopy. Quantification of cells with apoptotic nuclei was performed using Image J.

The next series concerns MDA-MB-468 xenografts. As to the kind of experiment: Xenograft in NSG mice. The series is classed as in vivo, mouse. To be noted: 200 μg/kg s.c., 28 days. As to the method: as §3
Additional studies were also performed in NSG mice. MDA-MB-468 (1×10^6) were injected into the mammary fat pad of 6-week old NSG (immunodeficient) mice. Once the tumor reached a volume of 150 mm^3, the mice were randomized to receive saline (vehicle control) or AZP531 via subcutaneous injection. After 28 days of treatment, the mice were humanely sacrificed by cervical dislocation.

In series [5] the test system is patient-derived breast cancer cells. Nature of the series: 3D growth of patient-derived breast cancer cells. The class given is cell-based, human.
Source text: Human BC Tissues and Preclinical Patient Derived Xenograft Models. Patient-derived breast tumors (PDX, (Zhang, et al., Cancer Res 15:4885-97 (2013)) and estrogen receptor positive (ER^+) breast tumors were used under IRB-approved protocols (WCM 1410015560 and 1603017108). All patients provided written informed consent. Cells were isolated and maintained in DMEM, supplemented with 10% fetal calf serum (FCS), 100U/ml penicillin/streptomycin and 1% sodium pyruvate (ThermoFisher Scientific). Cells were grown at 37° C. in a humidified atmosphere with 5% CO2. See Method Details for cell growth and proliferation work specific procedures.
as §2

With `Nc1cc(C(F)(F)F)c(-c2cc(N3CCOCC3)nc(N3CCOCC3)n2)cn1` [BKM120], the “cell growth in the presence of serum” value in the series with MDA-MB-231 cells and with MDA-MB-468 cells (serum) was “inhibited” each time.

For the compound `CCCCCCOC(=O)[C@]1(O)C[C@@H]2O[C@@]1(C)n1c3ccccc3c3c4c(c5c6ccccc6n2c5c31)C(=O)NC4` [KT5720], the “serum-stimulated growth (cell number)” value with MCF7 cells (serum) is given as “significant reduction in cell number”. Besides, the “growth of MDA-MB-468 cells” value in the series with MDA-MB-468 cells was “suppress the growth”.

With `NC1(c2ccc(-c3nc4ccn5c(=O)[nH]nc5c4cc3-c3ccccc3)cc2)CCC1` [MK2206], the forskolin-stimulated cell growth result in the series with MDA-MB-231 cells and in the series with MDA-MB-468 cells (3D) was “inhibit” throughout. Further, the “cell growth in the presence of serum” value in the series with MDA-MB-231 cells and in the series with MDA-MB-468 cells (serum) was “inhibited” throughout.

On to `Nc1ncnc2c1ncn2C1CCCO1` (stereo not shown) [SQ22536], for which the “serum-stimulated growth (cell number)” value in the series with MCF7 cells (serum) was “significant reduction in cell number”. In addition, the “growth of MDA-MB-468 cells” value in the series with MDA-MB-468 cells is listed as “suppress the growth”.

Take `N#CC(=C(/N)Sc1ccccc1N)/C(C#N)=C(\N)Sc1ccccc1N` [U0126]: the forskolin-stimulated cell growth result was “significant reduction” with MDA-MB-231 cells; “significant reduction” in the series on MCF7 cells (10 μM forskolin, 3D); “significant reduction” in the series with MDA-MB-468 cells (3D). For the same compound, in series [1], the “serum-stimulated EKAR (ERK) activity” value was “inhibited”.

Take `Nc1ncnc2c1ncn2[C@@H]1O[C@@H]2CO[P@@](O)(=S)O[C@H]2[C@H]1O` [cAMPS-RP]: in the series with MCF7 cells (serum), the “serum-stimulated growth (cell number)” value was “significant reduction in cell number”. The “growth of MDA-MB-468 cells” value in the series on MDA-MB-468 cells is given as “suppress the growth”.

On to “Cy3-labeled unacylated ghrelin: Cy3-tagged UAG (Pepmic Co, LtD) used for binding assays (GSSFLSPEHQRVQQRKESKKPPAKLQP; also: Cy3 label, position not given here; UniProt Q9UBU3 24-50, looked up)”, for which the “binding to responsive and non-responsive cells” value in [2] is listed as “Binding”.

For “GSS(n-octanoyl)FLSPEHQRVQQRKESKKPPAKLQPR (GSS(Octanoyl)FLSPEHQRVQQRKESKKPPAKLQPR) [acyl ghrelin]”, the “breast cancer cell growth in serum-stimulated conditions (FIG. 15G)” value in series [3] is “inhibited breast cancer cell growth”.

For the compound “SPEHQRVQ (also: cyclic, ring type not given here) [AZP531]”, the “pharmacokinetic properties relative to unacylated ghrelin” value in [4] was “better pharmacokinetic properties than unacylated ghrelin”. The safety profile entry in series [4] is recorded as “established safety profile”. Also, the “tumor cell growth (tumor volume)” value in the series with J110 allografts and with MDA-MB-468 xenografts was “suppression of cell growth” throughout. Further, in [5] (dose-response), the “serum-stimulated growth of patient-derived TNBC cells” value is given as “dose-dependent inhibition”. For the same compound, the “potency compared to doxorubicin” value in series [5] (patient-derived TNBC cells, serum) is on record as “greater potency than doxorubicin”; in the series on MCF7 cells (3D, serum) it was “greater potency than doxorubicin”; with MDA-MB-468 cells (3D, serum), “greater potency than doxorubicin”. Moreover, the “extent of cell number reduction” value in [5] (patient-derived TNBC cells, serum, unlike doxorubicin) is “did not reduce cell number beyond that which was stimulated by serum”; in the series with MCF7 cells (3D, serum, unlike doxorubicin), “did not reduce cell number beyond that which was stimulated by serum”; in the series with MDA-MB-468 cells (3D, serum, unlike doxorubicin), “did not reduce cell number beyond that which was stimulated by serum”. Besides, the “serum-stimulated growth of cells” value with MCF7 cells (3D, serum, dose-response) was “dose-dependent inhibition”; with MDA-MB-468 cells (3D, serum, dose-response), “dose-dependent inhibition”.
